Results published in patent US20220389230A1, “BLAST FURNACE SLAG-TYPE PAINT” (FUKKO CO., LTD., priority 2019, published 2022).
Like-named read-outs stand apart in the source and are kept apart here.

What was measured:
[1] = Corrosiveness of alkaline substances to aluminum, change in appearance after 24 hours
Experimental: For comparison with the aqueous solution shown in Table 3, a slurry liquid obtained by adding 10 parts by weight of water to 20 parts by weight of ordinary Portland cement was allowed to contact with an aluminum plate (A1050) not subjected to the surface treatment and an aluminum sash frame coated with a sulfuric acid anodized film at the spot, and a change in the appearance after 24 hours was observed.

[2] = Table 2; cited from earlier work
[3] = Confirmation of safety: presence or absence of danger (Table 2)
Experimental: The presence or absence of danger was evaluated based on the concentration adjustment work in Table 1 and whether or not it was subject to legal regulations.

[4] = pH and heat of dissolution of aqueous solutions that may give an alkaline stimulus (Table 1)

SMILES: [Ca+2].[OH-].[OH-] [Calcium hydroxide]
- pH of aqueous solution [1]: 12
- Existance of legal regulation [2]: No regulation
- Judging danger to human body [3]: The risk is small
- odor [3]: Odorless

SMILES: O=C([O-])[O-].[K+].[K+] [Potassium carbonate]
- pH of aqueous solution [1]: 11
- Existance of legal regulation [2]: No regulation
- Generation of heat of dissolution [4]: Medium
- Judging danger to human body [3]: The risk is small
- odor [3]: Odorless

SMILES: [K+].[OH-] [Potassium hydroxide]
- pH of aqueous solution [1]: 15
- Existance of legal regulation [2]: Drastic medicine
- Generation of heat of dissolution [4]: Large
- Judging danger to human body [3]: Very dangerous
- odor [3]: Odorless

SMILES: O=C([O-])CC(O)(CC(=O)[O-])C(=O)[O-].[Na+].[Na+].[Na+] [Sodium citrate]
- Existance of legal regulation [2]: No regulation
- Judging danger to human body [3]: The risk is small
- odor [3]: Odorless

SMILES: [Na+].[OH-] [Sodium hydroxide]
- Existance of legal regulation [2]: Drastic medicine
- Generation of heat of dissolution ([4]; Table 1, concentration adjustment of the aqueous solution): Large

SMILES: N [ammonia]
- Existance of legal regulation [2]: Drastic medicine
- Judging danger to human body [3]: Very dangerous
- odor [3]: Pungent

SMILES: O=C([O-])[O-].[Na+].[Na+] [sodium carbonate]
- pH of aqueous solution [1]: 12
- Existance of legal regulation [2]: No regulation
- Generation of heat of dissolution [4]: Medium
- Judging danger to human body [3]: The risk is small
- odor [3]: Odorless
